This note sets out measurements from patent US20240317827A1, “LINEAR PEPTIDES INHIBITING CK2-MEDIATED PHOSPHORYLATION AND COMPOSITIONS COMPRISING SAME” (CENTRO DE INGENIERÍA GENÉTICA Y BIOTECNOLOGÍA, priority 2021, published 2024).

In assay [1] the test system is NCI-H125 cell line (non-small cell lung cancer). Kind of assay: cell proliferation assay, NCI-H125 line. It is filed as cell-based. Here is the method:
The evaluation of the antiproliferative activity of polypeptides F11P13-F11P21 (SEQ ID NO: 12-SEQ ID NO: 20) was performed on the NCI-H125 cell line. […] The antiproliferative effect of the CIGB-300 peptide has been widely characterized in this line (Cirigliano S. M., et al., 2017, Cancer Cell International, 17, 42), therefore, it was selected as a positive control. Tat peptide was used as a negative control. The polypeptides were evaluated at the concentrations of 25, 50, 100 and 200 μM. The cell proliferation assay was performed by a previously described procedure (Perera Y., et al., 2012, J. Pept. Sci, 18 (4):215-23).
The 24 polypeptides identified as SEQ ID NO: 21-SEQ ID NO: 44 maintained the ability to inhibit the phosphorylation of the E7 protein of HPV-16, mediated by CK2, since phosphorylation inhibition values between 60-85% were obtained. […] Evaluation of the antiproliferative activity of synthetic polypeptides generated by positional scanning of Trp (SEQ ID NO: 21-SEQ ID NO: 44) was performed on the NCI-H125 cell line. The test was performed by the procedure previously described. (Perera Y., et al., 2012, J. Pept. Sci, 18 (4): 215-23). Precursor polypeptides (F11P19, F11P20, F11P21) and peptide CIGB-300 were included as positive controls. The polypeptides were evaluated at the concentrations of 12.5; 25; fifty; 100 and 200 μM.
The evaluation of the antiproliferative activity of synthetic polypeptides A15P35, A15P36 and A15P37 (SEQ ID NO: 46-SEQ ID NO: 48) was performed on the NCI-H125, AsPC-1, PanC-1 (pancreatic carcinoma) and OCI-AML3 (acute myeloid leukemia-3) cell lines. The test was carried out according to the procedure previously described (Perera Y, et al., 2012, J. Pept. Sci, 18 (4):215-23). […] The polypeptides A15P35, A15P36 and A15P37 were able to produce a dose-dependent effect on the proliferation of NCI-H125 cells.
Antiproliferative assays were performed on the NCI-H125, Hep2C (laryngeal carcinoma) cell lines, and on two bladder cancer lines (MGH-U3 and MGH-U4). The test was carried out according to the procedure previously described (Perera Y., et al, 2012, Pept. Sci, 18 (4):215-23).

Assay [2] has as its target T1, CK2-mediated phosphorylation of the HPV-16 E7 oncoprotein (Human papillomavirus type 16, UniProt P03129).
T1 construct: Glutathione S-Transferase (GST); made in house; host or cells: Escherichia coli
In words: in vitro phosphorylation reaction, E7 oncoprotein (GST fusion) as substrate. Conditions: procedure of Example 2. The class given is biochemical. On the procedure:
The assay to measure the effect of these peptides on the CK2-mediated phosphorylation of the HPV-16 E7 oncoprotein, was based on an in vitro phosphorylation reaction, where the E7 oncoprotein of HPV-16 expressed in Escherichia coli was used as substratum. This oncoprotein was obtained as a fusion protein to Glutathione S-Transferase. The assay was performed according to the procedure previously described. (Perea S. E., et al., 2004, Cancer Res., 64: 7127-7129). The results are shown in FIG. 1, and indicate that the peptides identified as SEQ ID NO: 1-SEQ ID NO: 9 are capable of inhibiting CK2-mediated phosphorylation of the E7 protein of HPV-16.

For assay [3], the target named is T2, E7 oncoprotein of HPV-16 expressed in Escherichia coli as a fusion protein to Glutathione S-Transferase (Human Papillomavirus (HPV)-16, UniProt P03129 1-98).
T2 sequence: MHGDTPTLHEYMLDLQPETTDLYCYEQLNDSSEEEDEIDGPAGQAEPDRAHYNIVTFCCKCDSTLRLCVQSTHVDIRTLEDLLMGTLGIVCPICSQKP
In words: cell-based or functional assay.

[4] abbreviates: NCI-H125, Table 5, read-out: IC50.
The mark [5] stands for this setting: NCI-H125, read-out: IC50 (dose-effect curves).

Where two headings read alike, the source gives them in different places. Where a SMILES comes first, the peptide text is derived from it. [ ]: non-standard residue; d: D form. βAla = NCCC(=O)O

For `N=C(N)NCCC[C@H](NC(=O)CN)C(=O)N[C@@H](CCCCN)C(=O)N[C@@H](CCCCN)C(=O)N[C@@H](CCCNC(=N)N)C(=O)N[C@@H](CCCNC(=N)N)C(=O)N[C@@H](CCC(N)=O)C(=O)N[C@@H](CCCNC(=N)N)C(=O)N[C@@H](CCCNC(=N)N)C(=O)N[C@@H](CCCNC(=N)N)C(=O)N1CCC[C@H]1C(=O)N1CCC[C@H]1C(=O)N[C@@H](CCC(N)=O)C(=O)NCCC(=O)N[C@@H](Cc1c[nH]c2ccccc12)C(=O)N[C@@H](Cc1ccc(O)cc1)C(=O)N[C@@H](CCCNC(=N)N)C(=O)N[C@@H](Cc1ccc(O)cc1)C(=O)N[C@@H](CCCCN)C(=O)N[C@@H](CCCNC(=N)N)C(=O)N[C@@H](CC(=O)O)C(=O)N1CCC[C@H]1C(N)=O` [A14P27, GRKKRRQRRRPPQ-βA-WYRYKRDP] (H-GRKKRRQRRRPPQ[βAla]WYRYKRDP-NH2; N-terminus and C-terminus assumed), the IC50 in assay [1] (setting [4]) is 165 µM. As to `N=C(N)NCCC[C@H](NC(=O)CN)C(=O)N[C@@H](CCCCN)C(=O)N[C@@H](CCCCN)C(=O)N[C@@H](CCCNC(=N)N)C(=O)N[C@@H](CCCNC(=N)N)C(=O)N[C@@H](CCC(N)=O)C(=O)N[C@@H](CCCNC(=N)N)C(=O)N[C@@H](CCCNC(=N)N)C(=O)N[C@@H](CCCNC(=N)N)C(=O)N1CCC[C@H]1C(=O)N1CCC[C@H]1C(=O)N[C@@H](CCC(N)=O)C(=O)NCCC(=O)NCC(=O)N[C@@H](Cc1ccc(O)cc1)C(=O)N[C@@H](CCCNC(=N)N)C(=O)N[C@@H](Cc1ccc(O)cc1)C(=O)N[C@@H](Cc1c[nH]c2ccccc12)C(=O)N[C@@H](CCCNC(=N)N)C(=O)N[C@@H](CC(=O)O)C(=O)N1CCC[C@H]1C(N)=O` [A14P31, GRKKRRQRRRPPQ-βA-GYRYWRDP] (H-GRKKRRQRRRPPQ[βAla]GYRYWRDP-NH2; N-terminus and C-terminus assumed), the IC50 in assay [1] (setting [4]) worked out at 135 µM. As to `N=C(N)NCCC[C@H](NC(=O)CN)C(=O)N[C@@H](CCCCN)C(=O)N[C@@H](CCCCN)C(=O)N[C@@H](CCCNC(=N)N)C(=O)N[C@@H](CCCNC(=N)N)C(=O)N[C@@H](CCC(N)=O)C(=O)N[C@@H](CCCNC(=N)N)C(=O)N[C@@H](CCCNC(=N)N)C(=O)N[C@@H](CCCNC(=N)N)C(=O)N1CCC[C@H]1C(=O)N1CCC[C@H]1C(=O)N[C@@H](CCC(N)=O)C(=O)NCCC(=O)NCC(=O)N[C@@H](Cc1ccc(O)cc1)C(=O)N[C@@H](CCCNC(=N)N)C(=O)N[C@@H](Cc1ccc(O)cc1)C(=O)N[C@@H](CCCCN)C(=O)N[C@@H](CCCNC(=N)N)C(=O)N[C@@H](Cc1c[nH]c2ccccc12)C(=O)N1CCC[C@H]1C(N)=O` [A14P33, GRKKRRQRRRPPQ-βA-GYRYKRWP] (H-GRKKRRQRRRPPQ[βAla]GYRYKRWP-NH2; N-terminus and C-terminus assumed), the IC50 in assay [1] (setting [4]) worked out at 124 µM. On to `N=C(N)NCCC[C@H](NC(=O)CN)C(=O)N[C@@H](CCCCN)C(=O)N[C@@H](CCCCN)C(=O)N[C@@H](CCCNC(=N)N)C(=O)N[C@@H](CCCNC(=N)N)C(=O)N[C@@H](CCC(N)=O)C(=O)N[C@@H](CCCNC(=N)N)C(=O)N[C@@H](CCCNC(=N)N)C(=O)N[C@@H](CCCNC(=N)N)C(=O)N1CCC[C@H]1C(=O)N1CCC[C@H]1C(=O)N[C@@H](CCC(N)=O)C(=O)NCCC(=O)N[C@@H](CCCNC(=N)N)C(=O)N[C@@H](CCCCN)C(=O)N[C@@H](CCCNC(=N)N)C(=O)N[C@@H](Cc1c[nH]c2ccccc12)C(=O)N[C@@H](CCCNC(=N)N)C(=O)N[C@@H](Cc1ccc(O)cc1)C(=O)N[C@@H](CC(=O)O)C(=O)N1CCC[C@H]1C(N)=O` [A14P43, GRKKRRQRRRPPQ-βA-RKRWRYDP] (H-GRKKRRQRRRPPQ[βAla]RKRWRYDP-NH2; N-terminus and C-terminus assumed), for which the IC50 in assay [1] (setting [4]) came to 107 µM. Still for that read-out and setting: the same measure for `CC(C)C[C@H](NC(=O)[C@H](CCCNC(=N)N)NC(=O)[C@H](CCCNC(=N)N)NC(=O)[C@H](CCCCN)NC(=O)[C@H](CCCCN)NC(=O)[C@@H](NC(=O)CCNC(=O)[C@H](CCC(N)=O)NC(=O)[C@@H]1CCCN1C(=O)[C@@H]1CCCN1C(=O)[C@H](CCCNC(=N)N)NC(=O)[C@H](CCCNC(=N)N)NC(=O)[C@H](CCCNC(=N)N)NC(=O)[C@H](CCC(N)=O)NC(=O)[C@H](CCCNC(=N)N)NC(=O)[C@H](CCCNC(=N)N)NC(=O)[C@H](CCCCN)NC(=O)[C@H](CCCCN)NC(=O)[C@H](CCCNC(=N)N)NC(=O)CN)C(C)C)C(=O)N[C@@H](Cc1c[nH]c2ccccc12)C(=O)N1CCC[C@H]1C(N)=O` [A14P59, GRKKRRQRRRPPQ-βA-VKKRRLWP] (H-GRKKRRQRRRPPQ[βAla]VKKRRLWP-NH2; N-terminus and C-terminus assumed): 140 µM. With `N=C(N)NCCC[C@H](NC(=O)CN)C(=O)N[C@@H](CCCCN)C(=O)N[C@@H](CCCCN)C(=O)N[C@@H](CCCNC(=N)N)C(=O)N[C@@H](CCCNC(=N)N)C(=O)N[C@@H](CCC(N)=O)C(=O)N[C@@H](CCCNC(=N)N)C(=O)N[C@@H](CCCNC(=N)N)C(=O)N[C@@H](CCCNC(=N)N)C(=O)N1CCC[C@H]1C(=O)N1CCC[C@H]1C(=O)N[C@@H](CCC(N)=O)C(=O)NCCC(=O)N[C@@H](CCCNC(=N)N)C(=O)N[C@@H](CCCCN)C(=O)N[C@@H](CCCNC(=N)N)C(=O)N[C@@H](CO)C(=O)N[C@@H](CCCNC(=N)N)C(=O)N[C@@H](Cc1ccc(O)cc1)C(=O)N[C@@H](CC(=O)O)C(=O)N1CCC[C@H]1C(N)=O` [F11P19, GRKKRRQRRRPPQ-βA-RKRSRYDP] (H-GRKKRRQRRRPPQ[βAla]RKRSRYDP-NH2; N-terminus and C-terminus assumed), the IC50 in assay [1] (setting [5]) amounted to 336 µM. Regarding `N=C(N)NCCC[C@H](NC(=O)CN)C(=O)N[C@@H](CCCCN)C(=O)N[C@@H](CCCCN)C(=O)N[C@@H](CCCNC(=N)N)C(=O)N[C@@H](CCCNC(=N)N)C(=O)N[C@@H](CCC(N)=O)C(=O)N[C@@H](CCCNC(=N)N)C(=O)N[C@@H](CCCNC(=N)N)C(=O)N[C@@H](CCCNC(=N)N)C(=O)N1CCC[C@H]1C(=O)N1CCC[C@H]1C(=O)N[C@@H](CCC(N)=O)C(=O)NCCC(=O)NCC(=O)N[C@@H](Cc1ccc(O)cc1)C(=O)N[C@@H](CCCNC(=N)N)C(=O)N[C@@H](Cc1ccc(O)cc1)C(=O)N[C@@H](CCCCN)C(=O)N[C@@H](CCCNC(=N)N)C(=O)N[C@@H](CC(=O)O)C(=O)N1CCC[C@H]1C(N)=O` [F11P20, GRKKRRQRRRPPQ-βA-GYRYKRDP] (H-GRKKRRQRRRPPQ[βAla]GYRYKRDP-NH2; N-terminus and C-terminus assumed), in assay [1] (setting [5]), the concentration for half-maximal inhibition (IC50) was 305 µM. On the same count and under the same terms, the same measure for `CC(C)C[C@H](NC(=O)[C@H](CCCNC(=N)N)NC(=O)[C@H](CCCNC(=N)N)NC(=O)[C@H](CCCCN)NC(=O)[C@H](CCCCN)NC(=O)[C@@H](NC(=O)CCNC(=O)[C@H](CCC(N)=O)NC(=O)[C@@H]1CCCN1C(=O)[C@@H]1CCCN1C(=O)[C@H](CCCNC(=N)N)NC(=O)[C@H](CCCNC(=N)N)NC(=O)[C@H](CCCNC(=N)N)NC(=O)[C@H](CCC(N)=O)NC(=O)[C@H](CCCNC(=N)N)NC(=O)[C@H](CCCNC(=N)N)NC(=O)[C@H](CCCCN)NC(=O)[C@H](CCCCN)NC(=O)[C@H](CCCNC(=N)N)NC(=O)CN)C(C)C)C(=O)N[C@@H](CC(=O)O)C(=O)N1CCC[C@H]1C(N)=O` [F11P21, GRKKRRQRRRPPQ-βA-VKKRRLDP] (H-GRKKRRQRRRPPQ[βAla]VKKRRLDP-NH2; N-terminus and C-terminus assumed): 668 µM. In assay [2], RKRSRYWP [D14P165] yielded a phosphorylation inhibition of 85%.

Turning to RKRSWYWP [D15P106], the phosphorylation inhibition in assay [2] is given as 82%. In assay [2], RKRWRYWP [D15P105] gave a phosphorylation inhibition of 87%. With RKRWRYWP [peptide D15P105 (RKRWRYWP)], in assay [3], the “inhibition of CK2-mediated phosphorylation of HPV-16 E7 (in vitro phosphorylation reaction, GST-E7 substrate)” value is 87%. On the same count and under the same terms, the same measure for RKRSRYWP [peptide D14P165 (RKRSRYWP)]: 85%.
